Where “and” joins values, the source holds several entries; their conditions need not be identical. Equal entries are not always repeated. Toxic doses and inconclusive results are not listed. How the source made its calls: active means survival T/C of 150% or more; inactive means T/C below 125% in these data.
System: P388 leukemia ip, CD2F1 mice, survival T/C
Experiment: NCI In Vivo Anticancer Drug Screen. Data for tumor model P388 Leukemia (intraperitoneal) in CD2F1 (CDF1) mice
Conditions: endpoint: median survival time, higher = longer survival
Procedure, shortened: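 Mice carrying the transplanted tumor received test compound or vehicle. Survival was recorded in each group, and the value is the treated-group measurement divided by that of the vehicle-treated control group.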

[1] = dose: 25.0 mg/kg/injection, schedule: Q01DX009 (ip), vehicle: saline with Tween-80
[2] = dose: 50.0 mg/kg/injection, schedule: Q01DX009 (ip), vehicle: saline with Tween-80
[3] = dose: 100.0 mg/kg/injection, schedule: Q01DX009 (ip), vehicle: saline with Tween-80
[4] = dose: 50.0 mg/kg/injection, schedule: Q01DX005 (ip), vehicle: saline with Tween-80
[5] = dose: 200.0 mg/kg/injection, schedule: Q01DX005 (ip), vehicle: saline with Tween-80
[6] = dose: 60.0 mg/kg/injection, schedule: Q01DX005 (ip), vehicle: saline with Tween-80
[7] = dose: 120.0 mg/kg/injection, schedule: Q01DX005 (ip), vehicle: saline with Tween-80
[8] = dose: 240.0 mg/kg/injection, schedule: Q01DX005 (ip), vehicle: saline with Tween-80
[9] = dose: 100.0 mg/kg/injection, schedule: Q01DX009 (ip), vehicle: saline
[10] = dose: 200.0 mg/kg/injection, schedule: Q01DX009 (ip), vehicle: saline
[11] = dose: 50.0 mg/kg/injection, schedule: Q01DX005 (ip), vehicle: Klucel (hydroxypropylcellulose) (HPC)
[12] = dose: 200.0 mg/kg/injection, schedule: Q01DX005 (ip), vehicle: Klucel (hydroxypropylcellulose) (HPC)
[13] = dose: 100.0 mg/kg/injection, schedule: Q01DX005 (ip), vehicle: saline with Tween-80

Measured: T/C

COc1ccc([N+]2=Cc3cc(OC)c(OC)cc3CC2)cc1OC
inactive: dose: 6.25 mg/kg/injection, schedule: Q01DX009 (ip), vehicle: water 115 % of control | dose: 12.5 mg/kg/injection, schedule: Q01DX009 (ip), vehicle: water 108 % of control | dose: 25.0 mg/kg/injection, schedule: Q01DX009 (ip), vehicle: water 108 % of control | dose: 50.0 mg/kg/injection, schedule: Q01DX009 (ip), vehicle: water 103 % of control and 108 % of control | dose: 100.0 mg/kg/injection, schedule: Q01DX009 (ip), vehicle: water 104 % of control and 88 % of control

COC1/C=C/OC2(C)Oc3c(C)c(O)c4c(O)c(c(/C=N/N5C(C)CN(Cc6ccc([N+](=O)[O-])cc6)CC5C)c(O)c4c3C2=O)NC(=O)/C(C)=C\C=C\C(C)C(O)C(C)C(O)C(C)C(OC(C)=O)C1C (stereo unspecified)
inactive: [1] 100 % of control | dose: 25.0 mg/kg/injection, schedule: Q01DX009 (ip), vehicle: suspension in saline 103 % of control | [2] 104 % of control and 119 % of control | dose: 50.0 mg/kg/injection, schedule: Q01DX009 (ip), vehicle: suspension in saline 103 % of control | [3] 119 % of control | dose: 100.0 mg/kg/injection, schedule: Q01DX009 (ip), vehicle: suspension in saline 108 % of control | dose: 200.0 mg/kg/injection, schedule: Q01DX009 (ip), vehicle: suspension in saline 119 % of control

C=C1C(=O)OC2/C=C(\C)CC/C=C(/C=O)C(O)C(OC(=O)C(C)C)C12 (stereo unspecified)
inactive: dose: 5.0 mg/kg/injection, schedule: Q01DX009 (ip), vehicle: other 112 % of control | dose: 20.0 mg/kg/injection, schedule: Q01DX009 (ip), vehicle: other 94 % of control

CC(=O)NS(=O)(=O)c1ccc(N=NC2C(=O)N(C(=O)c3ccncc3)N=C2C)cc1 (stereo unspecified)
inactive: [2] 95 % of control | [3] 97 % of control | dose: 200.0 mg/kg/injection, schedule: Q01DX009 (ip), vehicle: saline with Tween-80 100 % of control

CSc1nc(C(N)=O)cc(=O)[nH]1
inactive: dose: 3.12 mg/kg/injection, schedule: Q01DX009 (ip), vehicle: Klucel (hydroxypropylcellulose) (HPC) 104 % of control | dose: 6.25 mg/kg/injection, schedule: Q01DX009 (ip), vehicle: Klucel (hydroxypropylcellulose) (HPC) 104 % of control | dose: 12.5 mg/kg/injection, schedule: Q01DX009 (ip), vehicle: Klucel (hydroxypropylcellulose) (HPC) 104 % of control and 106 % of control | dose: 25.0 mg/kg/injection, schedule: Q01DX009 (ip), vehicle: Klucel (hydroxypropylcellulose) (HPC) 105 % of control | dose: 50.0 mg/kg/injection, schedule: Q01DX009 (ip), vehicle: Klucel (hydroxypropylcellulose) (HPC) 92 % of control

O=c1[nH]c2cc([N+](=O)[O-])ccc2nc1/C=C(\O)c1ccco1
inactive: dose: 60.0 mg/kg/injection, schedule: Q01DX005 (ip), vehicle: Klucel + Tween-80 100 % of control | dose: 120.0 mg/kg/injection, schedule: Q01DX005 (ip), vehicle: Klucel + Tween-80 94 % of control | dose: 240.0 mg/kg/injection, schedule: Q01DX005 (ip), vehicle: Klucel + Tween-80 94 % of control

O=[N+]([O-])c1ccc2c(c1)c(S(=O)(=O)O)cc1nonc12
inactive: dose: 12.5 mg/kg/injection, schedule: Q01DX005 (ip), vehicle: saline 98 % of control | dose: 25.0 mg/kg/injection, schedule: Q01DX005 (ip), vehicle: saline 95 % of control | [4] 95 % of control | dose: 50.0 mg/kg/injection, schedule: Q01DX005 (ip), vehicle: saline 90 % of control | [5] 93 % of control

Cc1cc(=O)oc2nc(-c3ccccc3)[nH]c(=O)c12
inactive: dose: 60.0 mg/kg/injection, schedule: Q01DX005 (ip), vehicle: Klucel (hydroxypropylcellulose) (HPC) 86 % of control | dose: 120.0 mg/kg/injection, schedule: Q01DX005 (ip), vehicle: Klucel (hydroxypropylcellulose) (HPC) 100 % of control | dose: 240.0 mg/kg/injection, schedule: Q01DX005 (ip), vehicle: Klucel (hydroxypropylcellulose) (HPC) 91 % of control

CC(=O)Nc1cccc(N)c1
inactive: dose: 33.0 mg/kg/injection, schedule: Q04DX003 (ip), vehicle: saline 95 % of control | dose: 50.0 mg/kg/injection, schedule: Q04DX003 (ip), vehicle: saline 95 % of control | dose: 75.0 mg/kg/injection, schedule: Q04DX003 (ip), vehicle: saline 100 % of control

COC(=O)c1cc(Cl)ccc1OCC(O)CNc1ccc(Cl)cc1C(=O)c1ccccc1 (stereo unspecified)
inactive: [6] 92 % of control | [7] 100 % of control | [8] 90 % of control

O=c1c2cc(O)c(O)cc2oc2cc(O)c(C3OC(CO)C(O)C(O)C3O)c(O)c12 (stereo unspecified)
inactive: dose: 100.0 mg/kg/injection, schedule: Q01DX001 (ip), vehicle: saline 101 % of control | dose: 400.0 mg/kg/injection, schedule: Q01DX001 (ip), vehicle: saline 101 % of control

CCCCCCCCCCSCC(N)C(=O)O (stereo unspecified)
inactive: dose: 50.0 mg/kg/injection, schedule: Q01DX009 (ip), vehicle: other 89 % of control | dose: 100.0 mg/kg/injection, schedule: Q01DX009 (ip), vehicle: other 88 % of control | dose: 200.0 mg/kg/injection, schedule: Q01DX009 (ip), vehicle: other 94 % of control | dose: 400.0 mg/kg/injection, schedule: Q01DX009 (ip), vehicle: other 99 % of control

CCOC(=O)C(C)(C)CN(CC(C)(C)C(=O)OCC)C(C)(C)C
inactive: dose: 100.0 mg/kg/injection, schedule: Q04DX003 (ip), vehicle: saline with Tween-80 109 % of control | dose: 200.0 mg/kg/injection, schedule: Q04DX003 (ip), vehicle: saline with Tween-80 109 % of control | dose: 400.0 mg/kg/injection, schedule: Q04DX003 (ip), vehicle: saline with Tween-80 122 % of control

CN(C)NC(=O)/C=C\C(=O)O
inactive: dose: 66.0 mg/kg/injection, schedule: Q01DX009 (ip), vehicle: saline 105 % of control | [9] 100 % of control | dose: 150.0 mg/kg/injection, schedule: Q01DX009 (ip), vehicle: saline 100 % of control | [10] 91 % of control

O=C1c2ccccc2C(=O)N1CBr
inactive: dose: 12.5 mg/kg/injection, schedule: Q01DX009 (ip), vehicle: saline with Tween-80 109 % of control | [1] 104 % of control | [2] 100 % of control

CCC1COS(=O)(=O)CS(=O)(=O)O1 (stereo unspecified)
inactive: [6] 101 % of control | [7] 100 % of control | [8] 105 % of control

CCCCCCCC1SCC(=O)N1c1nncs1 (stereo unspecified)
inactive: [6] 94 % of control | [7] 94 % of control | [8] 91 % of control

COc1ccc(C)cc1NC(=S)C#N
inactive: [6] 98 % of control | [7] 106 % of control

CNC(=O)Nc1ccnc(=O)[nH]1
inactive: [11] 116 % of control

N#Cc1c(-c2ccc(Cl)cc2)c(-c2ccc(Cl)cc2)n[nH]c1=O
inactive: [11] 100 % of control | dose: 100.0 mg/kg/injection, schedule: Q01DX005 (ip), vehicle: Klucel (hydroxypropylcellulose) (HPC) 99 % of control | [12] 104 % of control

CC1=NNC(C)(C)C1
inactive: [9] 105 % of control | [10] 105 % of control | dose: 400.0 mg/kg/injection, schedule: Q01DX009 (ip), vehicle: saline 110 % of control

O=C(CCc1c[nH]c2ccccc12)c1ccccc1O
inactive: [6] 98 % of control | [7] 100 % of control | [8] 92 % of control

CCCS(=O)(=O)CCC(=O)c1ccccc1
inactive: dose: 100.0 mg/kg/injection, schedule: Q04DX002 (ip), vehicle: saline 101 % of control | dose: 200.0 mg/kg/injection, schedule: Q04DX002 (ip), vehicle: saline 107 % of control | dose: 400.0 mg/kg/injection, schedule: Q04DX002 (ip), vehicle: saline 102 % of control

C=CC(C)(C)/C=C/C=O
inactive: [6] 97 % of control | [7] 92 % of control | [8] 104 % of control

COC(=O)/C=C1/Nc2ccccc2SC1C(=O)OC (stereo unspecified)
inactive: [4] 104 % of control | [13] 99 % of control | [5] 100 % of control

COc1ccc2c(c1)OCCN(C)OC2c1cccc(Cl)c1 (stereo unspecified)
inactive: [4] 107 % of control | [13] 99 % of control | [5] 92 % of control

O=C(NP1(=O)NCc2ccccc2CN1)OC1CCCC1
inactive: dose: 3.12 mg/kg/injection, schedule: Q01DX005 (ip), vehicle: Klucel (hydroxypropylcellulose) (HPC) 99 % of control and 92 % of control | dose: 6.25 mg/kg/injection, schedule: Q01DX005 (ip), vehicle: Klucel (hydroxypropylcellulose) (HPC) 101 % of control and 91 % of control | dose: 12.5 mg/kg/injection, schedule: Q01DX005 (ip), vehicle: Klucel (hydroxypropylcellulose) (HPC) 99 % of control and 104 % of control | dose: 25.0 mg/kg/injection, schedule: Q01DX005 (ip), vehicle: Klucel (hydroxypropylcellulose) (HPC) 92 % of control and 93 % of control and 98 % of control | [11] 91 % of control | [12] 88 % of control
